# From BigSolDB 2.1
structure (smiles),measurement,setting,value
Nc1nnc[nH]1,solubility (mole fraction),"in 1,4-dioxane, 288.15 K",0.00325
same,solubility (mole fraction),"in 1,4-dioxane, 290.65 K",0.0037
same,solubility (mole fraction),"in 1,4-dioxane, 293.15 K",0.00404
same,solubility (mole fraction),"in 1,4-dioxane, 295.65 K",0.00449
same,solubility (mole fraction),"in 1,4-dioxane, 298.15 K",0.00506
same,solubility (mole fraction),"in 1,4-dioxane, 300.65 K",0.00569
same,solubility (mole fraction),"in 1,4-dioxane, 303.15 K",0.0064
same,solubility (mole fraction),"in 1,4-dioxane, 305.65 K",0.00708
same,solubility (mole fraction),"in 1,4-dioxane, 308.15 K",0.00785
same,solubility (mole fraction),"in 1,4-dioxane, 310.65 K",0.00865
same,solubility (mole fraction),"in 1,4-dioxane, 313.15 K",0.00952
same,solubility (mole fraction),"in 1,4-dioxane, 315.65 K",0.0103
same,solubility (mole fraction),"in 1,4-dioxane, 318.15 K",0.0114
same,solubility (mole fraction),"in 2-butanone, 283.15 K",0.00169
same,solubility (mole fraction),"in 2-butanone, 285.65 K",0.00191
same,solubility (mole fraction),"in 2-butanone, 288.15 K",0.00214
same,solubility (mole fraction),"in 2-butanone, 290.65 K",0.00242
same,solubility (mole fraction),"in 2-butanone, 293.15 K",0.00272
same,solubility (mole fraction),"in 2-butanone, 295.65 K",0.00306
same,solubility (mole fraction),"in 2-butanone, 298.15 K",0.00344
same,solubility (mole fraction),"in 2-butanone, 300.65 K",0.00386
same,solubility (mole fraction),"in 2-butanone, 303.15 K",0.00438
same,solubility (mole fraction),"in 2-butanone, 305.65 K",0.00497
same,solubility (mole fraction),"in 2-butanone, 308.15 K",0.0056
same,solubility (mole fraction),"in 2-butanone, 310.65 K",0.00626
same,solubility (mole fraction),"in 2-butanone, 313.15 K",0.00698
same,solubility (mole fraction),"in 2-butanone, 315.65 K",0.00768
same,solubility (mole fraction),"in 2-butanone, 318.15 K",0.00844
same,solubility (mole fraction),"in NMP, 283.15 K",0.145
same,solubility (mole fraction),"in NMP, 285.65 K",0.152
same,solubility (mole fraction),"in NMP, 288.15 K",0.159
same,solubility (mole fraction),"in NMP, 290.65 K",0.166
same,solubility (mole fraction),"in NMP, 293.15 K",0.173
same,solubility (mole fraction),"in NMP, 295.65 K",0.181
same,solubility (mole fraction),"in NMP, 298.15 K",0.189
same,solubility (mole fraction),"in NMP, 300.65 K",0.198
same,solubility (mole fraction),"in NMP, 303.15 K",0.206
same,solubility (mole fraction),"in NMP, 305.65 K",0.215
same,solubility (mole fraction),"in NMP, 308.15 K",0.225
same,solubility (mole fraction),"in NMP, 310.65 K",0.234
same,solubility (mole fraction),"in NMP, 313.15 K",0.244
same,solubility (mole fraction),"in NMP, 315.65 K",0.255
same,solubility (mole fraction),"in NMP, 318.15 K",0.267
same,solubility (mole fraction),"in acetone, 283.15 K",0.00476
same,solubility (mole fraction),"in acetone, 285.65 K",0.00515
same,solubility (mole fraction),"in acetone, 288.15 K",0.00564
same,solubility (mole fraction),"in acetone, 290.65 K",0.00617
same,solubility (mole fraction),"in acetone, 293.15 K",0.00672
same,solubility (mole fraction),"in acetone, 295.65 K",0.00727
same,solubility (mole fraction),"in acetone, 298.15 K",0.00793
same,solubility (mole fraction),"in acetone, 300.65 K",0.00869
same,solubility (mole fraction),"in acetone, 303.15 K",0.0095
same,solubility (mole fraction),"in acetone, 305.65 K",0.0104
same,solubility (mole fraction),"in acetone, 308.15 K",0.0114
same,solubility (mole fraction),"in acetone, 310.65 K",0.0123
same,solubility (mole fraction),"in acetone, 313.15 K",0.0133
same,solubility (mole fraction),"in acetone, 315.65 K",0.0142
same,solubility (mole fraction),"in acetone, 318.15 K",0.0152
same,solubility (mole fraction),"in acetonitrile, 283.15 K",0.00061
same,solubility (mole fraction),"in acetonitrile, 285.65 K",0.000713
same,solubility (mole fraction),"in acetonitrile, 288.15 K",0.000871
same,solubility (mole fraction),"in acetonitrile, 290.65 K",0.00106
same,solubility (mole fraction),"in acetonitrile, 293.15 K",0.00127
same,solubility (mole fraction),"in acetonitrile, 295.65 K",0.00153
same,solubility (mole fraction),"in acetonitrile, 298.15 K",0.00185
same,solubility (mole fraction),"in acetonitrile, 300.65 K",0.00224
same,solubility (mole fraction),"in acetonitrile, 303.15 K",0.00273
same,solubility (mole fraction),"in acetonitrile, 305.65 K",0.00327
same,solubility (mole fraction),"in acetonitrile, 308.15 K",0.00384
same,solubility (mole fraction),"in acetonitrile, 310.65 K",0.00453
same,solubility (mole fraction),"in acetonitrile, 313.15 K",0.00528
same,solubility (mole fraction),"in acetonitrile, 315.65 K",0.00614
same,solubility (mole fraction),"in acetonitrile, 318.15 K",0.00698
same,solubility (mole fraction),"in ethanol, 283.15 K",0.0112
same,solubility (mole fraction),"in ethanol, 285.65 K",0.0126
same,solubility (mole fraction),"in ethanol, 288.15 K",0.0143
same,solubility (mole fraction),"in ethanol, 290.65 K",0.0165
same,solubility (mole fraction),"in ethanol, 293.15 K",0.0187
same,solubility (mole fraction),"in ethanol, 295.65 K",0.0213
same,solubility (mole fraction),"in ethanol, 298.15 K",0.0239
same,solubility (mole fraction),"in ethanol, 300.65 K",0.0269
same,solubility (mole fraction),"in ethanol, 303.15 K",0.0302
same,solubility (mole fraction),"in ethanol, 305.65 K",0.0338
same,solubility (mole fraction),"in ethanol, 308.15 K",0.0378
same,solubility (mole fraction),"in ethanol, 310.65 K",0.042
same,solubility (mole fraction),"in ethanol, 313.15 K",0.0469
same,solubility (mole fraction),"in ethanol, 315.65 K",0.0516
same,solubility (mole fraction),"in ethanol, 318.15 K",0.0569
same,solubility (mole fraction),"in ethyl acetate, 283.15 K",0.00147
same,solubility (mole fraction),"in ethyl acetate, 285.65 K",0.00168
same,solubility (mole fraction),"in ethyl acetate, 288.15 K",0.0019
same,solubility (mole fraction),"in ethyl acetate, 290.65 K",0.00213
same,solubility (mole fraction),"in ethyl acetate, 293.15 K",0.00237
same,solubility (mole fraction),"in ethyl acetate, 295.65 K",0.00263
same,solubility (mole fraction),"in ethyl acetate, 298.15 K",0.00286
same,solubility (mole fraction),"in ethyl acetate, 300.65 K",0.00313
same,solubility (mole fraction),"in ethyl acetate, 303.15 K",0.00345
same,solubility (mole fraction),"in ethyl acetate, 305.65 K",0.00383
same,solubility (mole fraction),"in ethyl acetate, 308.15 K",0.00421
same,solubility (mole fraction),"in ethyl acetate, 310.65 K",0.00458
same,solubility (mole fraction),"in ethyl acetate, 313.15 K",0.00503
same,solubility (mole fraction),"in ethyl acetate, 315.65 K",0.00549
same,solubility (mole fraction),"in ethyl acetate, 318.15 K",0.00602
same,solubility (mole fraction),"in isopropanol, 283.15 K",0.00423
same,solubility (mole fraction),"in isopropanol, 285.65 K",0.00515
same,solubility (mole fraction),"in isopropanol, 288.15 K",0.00634
same,solubility (mole fraction),"in isopropanol, 290.65 K",0.00755
same,solubility (mole fraction),"in isopropanol, 293.15 K",0.00912
same,solubility (mole fraction),"in isopropanol, 295.65 K",0.0111
same,solubility (mole fraction),"in isopropanol, 298.15 K",0.0135
same,solubility (mole fraction),"in isopropanol, 300.65 K",0.0161
same,solubility (mole fraction),"in isopropanol, 303.15 K",0.0191
same,solubility (mole fraction),"in isopropanol, 305.65 K",0.0217
same,solubility (mole fraction),"in isopropanol, 308.15 K",0.0259
same,solubility (mole fraction),"in isopropanol, 310.65 K",0.0304
same,solubility (mole fraction),"in isopropanol, 313.15 K",0.035
same,solubility (mole fraction),"in isopropanol, 315.65 K",0.0398
same,solubility (mole fraction),"in isopropanol, 318.15 K",0.0453
same,solubility (mole fraction),"in methanol, 283.15 K",0.0306
same,solubility (mole fraction),"in methanol, 285.65 K",0.0329
same,solubility (mole fraction),"in methanol, 288.15 K",0.0353
same,solubility (mole fraction),"in methanol, 290.65 K",0.038
same,solubility (mole fraction),"in methanol, 293.15 K",0.0408
same,solubility (mole fraction),"in methanol, 295.65 K",0.0437
same,solubility (mole fraction),"in methanol, 298.15 K",0.0471
same,solubility (mole fraction),"in methanol, 300.65 K",0.0501
same,solubility (mole fraction),"in methanol, 303.15 K",0.0537
same,solubility (mole fraction),"in methanol, 305.65 K",0.0574
same,solubility (mole fraction),"in methanol, 308.15 K",0.0613
same,solubility (mole fraction),"in methanol, 310.65 K",0.0654
same,solubility (mole fraction),"in methanol, 313.15 K",0.0701
same,solubility (mole fraction),"in methanol, 315.65 K",0.0745
same,solubility (mole fraction),"in methanol, 318.15 K",0.0794
same,solubility (mole fraction),"in n-propanol, 283.15 K",0.0057
same,solubility (mole fraction),"in n-propanol, 285.65 K",0.007
same,solubility (mole fraction),"in n-propanol, 288.15 K",0.00835
same,solubility (mole fraction),"in n-propanol, 290.65 K",0.00983
same,solubility (mole fraction),"in n-propanol, 293.15 K",0.0116
same,solubility (mole fraction),"in n-propanol, 295.65 K",0.0135
same,solubility (mole fraction),"in n-propanol, 298.15 K",0.0162
same,solubility (mole fraction),"in n-propanol, 300.65 K",0.0189
same,solubility (mole fraction),"in n-propanol, 303.15 K",0.022
same,solubility (mole fraction),"in n-propanol, 305.65 K",0.0255
same,solubility (mole fraction),"in n-propanol, 308.15 K",0.0293
same,solubility (mole fraction),"in n-propanol, 310.65 K",0.0339
same,solubility (mole fraction),"in n-propanol, 313.15 K",0.0388
same,solubility (mole fraction),"in n-propanol, 315.65 K",0.0448
same,solubility (mole fraction),"in n-propanol, 318.15 K",0.0512
